Experimental data taken from PubChem BioAssay AID743395 (Broad Institute, 2014).

Tested on: HepG2 viability, CellTiter-Glo ATP luminescence, 72 h
Assay: HepG2 cell cytotoxicity, dose response, cytotoxicity control, CellTiter-Glo luminescence, cherry-pick, set 2 (AID 743395)

## O=C(Nc1ccc(OC(F)(F)F)cc1)c1ccc2c(c1)no[n+]2[O-]
  AC35: 17.6 µM

## O=C(Cc1ccc(Br)cc1)NCc1ccccc1
  AC35: 5.52 µM

## CC1=Nc2cc(C(=O)NCC3CCCO3)ccc2Sc2ccc(Br)cc21 (stereo unspecified)
  AC35: 19.4 µM

## O=C(C1CCCCC1)N1CC(=O)N2[C@@H](CO)[C@H](c3ccc(C#Cc4cccc(F)c4)cc3)[C@@H]2C1
  AC35: 16.4 µM

## O=C(c1cccc(F)c1)N1CC[C@@H]2[C@H](CO)Nc3ccc(-c4ccccc4F)cc3[C@@H]21
  AC35: 18.1 µM

## Cc1cccc(N2CCN(C(=O)c3c(-c4ccccc4)noc3C)CC2)c1C
  AC35: 4.42 µM

## COCC(=O)N1CC2(CCN(Cc3ccccc3)CC2)c2c([nH]c3cc(OC)ccc23)[C@H]1CO
  AC35: 5.27 µM

## C=C1SC(Nc2c(C)cc(C)cc2C)=NC12CCCCC2
  AC35: 17.2 µM

## Cc1c(C2Nc3ccccc3C2C)[nH]c2ccccc12 (stereo unspecified)
  AC35: 6.86 µM

## COc1ccc(N2CCc3c(C)nc4c(OC)cc(OC)cc4c32)cc1
  AC35: 9.38 µM

## CCOc1ccc(NC(=O)c2cc(OC)nc3ccccc23)cc1
  AC35: 14.3 µM

## NCC(=O)NNC(=O)OCC1c2ccccc2-c2ccccc21
  AC35: 12.7 µM

## O=C1CN(S(=O)(=O)Cc2ccccc2)C[C@@H]2[C@@H](c3ccc(C#Cc4cccc(F)c4)cc3)[C@H](CO)N12
  AC35: 14.1 µM

## C=CCN1c2ccccc2[C@]23C[C@@H](C(=O)OC)N(C(=O)c4cccs4)C2=NC(C(=O)OC)=C(C(=O)OC)[C@H]13
  AC35: 19.1 µM

## COc1ccc(S(=O)(=O)N2CC[C@@H]3[C@@H](CO)Nc4ccc(-c5cccc(C#N)c5)cc4[C@@H]32)cc1
  AC35: 14 µM

## O=C(c1cccc(F)c1)N1CC(=O)N2[C@@H](CO)[C@@H](c3ccc(C#Cc4ccc(F)cc4)cc3)[C@@H]2C1
  AC35: 17.9 µM

## C[C@@H]1CN([C@@H](C)CO)C(=O)c2cc(C#CCN(C)C)cnc2O[C@H]1CN(C)Cc1ccc(-c2ccccc2)cc1
  AC35: 11.5 µM

## COC(=O)c1ccc(S(=O)(=O)N2CCc3ccccc32)cc1
  AC35: 16.1 µM

## O=C(N/N=C/c1c(O)ccc2ccccc12)C(=O)N1CCCC1
  AC35: 15.7 µM

## O=C1OCC2=C1C(c1ccc3c(c1)OCO3)c1cc3c(cc1O2)OCO3 (stereo unspecified)
  AC35: 3.26 µM

## CCCCn1c(CN2CCN(c3cccc(Cl)c3)CC2)nc2c1c(=O)[nH]c(=O)n2C
  AC35: 12.3 µM

## CC(C)(C)c1ccc(OCC(=O)Nc2ccc3c4c(cccc24)C(=O)NC3=O)cc1
  AC35: 18.5 µM

## O=C1c2ccc3c4c(ccc(c24)C(=O)N1CCCCO)C(=O)N(CCCCO)C3=O
  AC35: 2.63 µM

## CO/N=C\CC(=O)Nc1ccc(Cl)cc1Cl
  AC35: 16.1 µM

## O=c1ccc2c(-c3ccccc3)c3ccc(O)cc3oc-2c1
  AC35: 17.8 µM

## CC(C)C[C@H]1CN([C@@H](CC(C)C)CN2CCC[C@@H]2CN2C(=S)NC[C@@H]2Cc2ccc(O)cc2)C(=S)N1CCc1ccccc1
  AC35: 19.2 µM

## CCc1ccc(N2CC(C(=O)Nc3ccccc3N3CCCC3)CC2=O)cc1 (stereo unspecified)
  AC35: 10.8 µM

## COc1ccccc1Nc1c2c(nc3ccccc13)CCC2
  AC35: 7.12 µM

## N=C1/C(=C/c2cccn2CCOc2ccccc2)C(=O)N=C2SC=C(c3ccccc3)N12
  AC35: 19.3 µM

## CC(=O)c1cccc(-c2ccnc3c2CC(C(=O)NCc2ccco2)O3)c1 (stereo unspecified)
  AC35: 6.09 µM

## COc1ccc(S(=O)(=O)NCc2ccccn2)cc1NC(=O)c1ccccc1F
  AC35: 18.5 µM

## COc1cc(C(=O)Nc2ccc3c(c2)ncn3C)cc(OC)c1OC
  AC35: 14.5 µM

## Cc1ccc(-c2nn(-c3ccccc3)cc2C(=O)N2CCN(c3ccccn3)CC2)cc1
  AC35: 12.3 µM

## CC/C=C/CC(=O)N[C@@H](c1ccccc1)[C@@H](O)C(=O)O[C@H]1C[C@@]2(O)[C@@H](OC(=O)c3ccccc3)C3[C@](C)(C(=O)[C@H](OC(C)=O)C(=C1C)C2(C)C)[C@@H](O)C[C@H]1OC[C@@]31OC(C)=O (stereo partly specified)
  AC35: 1.98 µM

## O=C(N/N=C/c1cccs1)c1cc(C2CC2)nc2ccccc12
  AC35: 21.1 µM

## COc1ccc2c3c([nH]c2c1)[C@@H](CO)N(C(=O)C1CCOCC1)CC31CCN(Cc2cccc(F)c2)CC1
  AC35: 1.04 µM

## COc1ccc(COc2cc(-c3cccc(OC)c3)nc3ccc(NC(=O)c4ccc(OC)cc4)cc23)cc1
  AC35: 7.56 µM

## O=C(c1cccc(S(=O)(=O)N2CCN(c3ccc(F)cc3)CC2)c1)N1CCCC(C(F)(F)F)C1 (stereo unspecified)
  AC35: 9.64 µM

## COc1ccc(OC)c2[nH]c(C(=O)N/N=C/c3ccccc3O)cc12
  AC35: 3.77 µM

## CCOC(=O)c1ccc(N2CCOCC2)c(NC(=O)c2c(-c3ccccc3)noc2C)c1
  AC35: 3.87 µM

## COc1cccc(/C=N/Nc2ncnc(Cl)c2N)c1O
  AC35: 2.15 µM

## COc1ccc2c3c([nH]c2c1)[C@H](CO)N(C(=O)C1CCOCC1)CC31CCN(Cc2cccc(F)c2)CC1
  AC35: 2.74 µM

## CC(=NNC(=S)N1CCCCC1)c1cccc(C)n1
  AC35: 15.6 µM

## O=C(N/N=C/c1c(O)ccc2ccccc12)c1ccc(Br)o1
  AC35: 1.18 µM

## COc1ccc(NC(=O)C(=O)NCC2CCCN2S(=O)(=O)c2cccs2)cc1 (stereo unspecified)
  AC35: 12.8 µM

## COc1cccc(S(=O)(=O)N(C)C[C@@H]2Oc3cc(C4=CCCC4)ccc3S(=O)(=O)N([C@H](C)CO)C[C@H]2C)c1
  AC35: 20.3 µM

## C=C1C(=O)O[C@@H]2C[C@@H](C)[C@@H]3C=CC(=O)[C@@]3(C)[C@@H](O)[C@H]12
  AC35: 2.99 µM

## CCOC(=O)c1ccc(-c2c(-c3cc(OC)c(OC)c(OC)c3)noc2C)cc1F
  AC35: 5.6 µM

## Oc1ccc2ccccc2c1/C=C/c1ccc2c(Br)cc(Br)c(O)c2n1
  AC35: 9.42 µM

## O=Nc1ccc(O)c2ncccc12
  AC35: 5.57 µM

## COc1cccc(C(=O)Nc2sc3c(c2C#N)CCN(C(C)=O)C3)c1
  AC35: 11.6 µM

## CCN(CC)CCCNc1ccc2ncn3c4ccc(O)cc4c(=O)c1c23
  AC35: 1.03 µM

## CC(C)(C)c1ccc(/C=C/C(=O)c2ccc(NC3=NCCCS3)cc2)cc1
  AC35: 18.2 µM

## COc1ccccc1CNC(=O)Nc1nc(C(N)Cc2ccc(Cl)cc2)cs1 (stereo unspecified)
  AC35: 9.79 µM

## CN1c2ccc(-c3ccc(F)cc3)cc2[C@H]2[C@H](CCN2S(=O)(=O)c2ccc(F)cc2)[C@H]1CO
  AC35: 19.5 µM

## Cc1ccc(S(=O)(=O)Nc2ccc3c(c2)CC(=O)N([C@@H](C)CO)C[C@@H](C)[C@@H](CN(C)Cc2ccc(Cl)c(Cl)c2)O3)cc1
  AC35: 10.3 µM

## COc1ccc(-c2ccc3c(c2)[C@H]2[C@H](CCN2S(=O)(=O)c2ccc(OC)cc2)[C@@H](CO)N3)cc1
  AC35: 14.5 µM

## Cc1ccc(C2(C)NC(=O)N(CC(=O)Nc3nc(-c4ccccn4)cs3)C2=O)cc1 (stereo unspecified)
  AC35: 4.46 µM

## Cn1nccc1C(=O)N/N=C/c1c(O)ccc2ccccc12
  AC35: 4.13 µM

## CCOC(=O)c1c(C)[nH]c(C(=O)N/N=C/c2ccc(OC)c(OC)c2)c1C
  AC35: 6.01 µM

## COc1ccc(Nc2nc(-c3sc(C)nc3C)cs2)cc1
  AC35: 1.29 µM

## COc1c(O)cc2c(c1OC)-c1ccc(OC)c(=O)cc1C(NC(C)=O)CC2 (stereo unspecified)
  AC35: 0.453 µM

## O=C(Nc1ccc(Br)cn1)c1cccc2ccccc12
  AC35: 5.99 µM

## O=C1NC(=Nc2ccc(O)cc2)S/C1=C/c1ccco1
  AC35: 11.7 µM

## CO[C@@]12[C@@H]3N[C@@H]3CN1C1=C(C(=O)C(N)=C(C)C1=O)[C@@H]2COC(N)=O
  AC35: 9.61 µM

## C[C@@H]1CN([C@@H](C)CO)C(=O)c2cc(NS(=O)(=O)c3ccc(Cl)cc3)ccc2O[C@@H]1CN(C)Cc1ccc(C(F)(F)F)cc1
  AC35: 16.4 µM

## Cc1ccnc2c1ccc1cccnc12
  AC35: 2.98 µM

## N#C/C(=C/c1ccc(N2CCCCC2)o1)C(=O)Nc1ccc2ccccc2c1
  AC35: 21.1 µM

## CN1c2ccc(-c3ccc(F)cc3)cc2[C@H]2[C@H](CCN2S(=O)(=O)c2ccc(F)cc2)[C@@H]1CO
  AC35: 20.9 µM

## COC(=O)c1cc(C(=O)N2CCN(c3cccc(Cl)c3)CC2)cc([N+](=O)[O-])c1
  AC35: 14.1 µM

## COc1cccc(-c2cc3nc(-c4ccccc4)cc(=O)n3[nH]2)c1
  AC35: 7.55 µM

## COc1ccc(C2c3ccc4ccccc4c3Oc3ncn(CCCO)c(=N)c32)cc1OC (stereo unspecified)
  AC35: 18.7 µM

## O=C1c2ccccc2C(=O)c2c1cccc2N1CCCC1
  AC35: 18.9 µM

## Cc1ccc(OCCNC(=O)c2cccc(S(=O)(=O)NCc3ccccc3)c2)cc1
  AC35: 15.2 µM

## CC(=O)Nc1sc2c(c1-c1nc3ccccc3s1)CN(C(C)C)CC2
  AC35: 3.4 µM

## C#C[C@]1(O)CC[C@H]2[C@@H]3CCc4cc(OC5CCCC5)ccc4[C@H]3CC[C@@]21C
  AC35: 21 µM

## COCCCN=C1NN=C(c2cc(C)n(Cc3ccco3)c2C)CS1
  AC35: 6.71 µM

## COc1cc(Nc2c3c(nc4ccccc24)CCC3)cc(OC)c1OC
  AC35: 7.54 µM

## Nc1nc(Cl)nc2c1ncn2C1CC(O)C(CO)O1 (stereo unspecified)
  AC35: 4.65 µM

## COc1ccc(CNC(=O)c2c(C)oc3c2C(=O)c2ccccc2C3=O)cc1
  AC35: 2.36 µM

## C[C@@H]1O[C@@H](O[C@@H]2C=C3CC[C@@H]4C(CC[C@]5(C)[C@@H](c6ccc(=O)oc6)CC[C@]45O)[C@@]3(C)CC2)[C@H](O)[C@H](O)[C@H]1O (stereo partly specified)
  AC35: 0.116 µM

## CCN(c1cccc(C)c1)S(=O)(=O)c1ccc(-c2cc(C)no2)s1
  AC35: 8.73 µM

## O=[N+]([O-])c1ccc(N2CCOCC2)c2c1no[n+]2[O-]
  AC35: 8.72 µM

## Oc1ccc(/C=N/Nc2nc(-c3ccccc3F)nc3ccccc23)c(O)c1
  AC35: 15.6 µM

## COc1ccc2c(c1)sc(N)[n+]2Cc1cc(C)cc2cccnc12
  AC35: 12.4 µM

## CCCCN1C(=O)CC(C(=O)OCC)=C1C
  AC35: 22 µM

## CCN1CCN(c2cc(C)c3cc(NC(=O)c4ccc(OC)c(OC)c4)ccc3n2)CC1
  AC35: 12.4 µM

## CCCNC(=O)c1ccc2c(=O)c(O)c(-c3cccc(Br)c3)[nH]c2c1
  AC35: 4.65 µM

## COc1ccc(CCNc2ncnc3c2oc2ccccc23)cc1OC
  AC35: 11.3 µM

## CC(C)Nc1ccc(Nc2ccnc3cc4ccccc4cc23)cc1
  AC35: 2.44 µM

## Nc1c(C(=O)c2ccco2)oc2ccccc12
  AC35: 15.8 µM

## Cc1cccc(N2CCN(Cc3cn(C)nc3-c3ccccc3F)CC2)n1
  AC35: 3.97 µM

## CCc1ccc(OCCNc2cc(N3CCNC(C)C3)ccc2[N+](=O)[O-])cc1 (stereo unspecified)
  AC35: 9.58 µM

## C/C(=N\NC(=O)c1c(Cl)c(C)nn1C)c1ccc(NC(=O)C2CCC2)cc1
  AC35: 4.43 µM

## O=C(NCc1ccccc1)C1Cc2c(-c3cccc(F)c3)ccnc2O1 (stereo unspecified)
  AC35: 22.1 µM

## c1ccc2c(c1)C1=NCCN1c1ccccc1-2
  AC35: 3.01 µM

## COc1ccc(CNS(=O)(=O)c2cc(-c3cc(C)no3)ccc2C(C)C)cc1
  AC35: 7.14 µM

## Cn1cccc1/C=C1\SC(=Nc2cccc(O)c2)NC1=O
  AC35: 14.2 µM

## COc1cc(OC)cc(C(=O)OCC(=O)NC(c2ccccc2)c2ccccc2)c1
  AC35: 16.2 µM

## COc1cc(C(=O)Nc2ccccc2C(=O)Nc2ccccn2)cc(OC)c1OC
  AC35: 4.9 µM

## CCC1=C(CC2NCCc3ccccc32)CC2c3cc(OC)c(OC)cc3CCN2C1 (stereo unspecified)
  AC35: 18.2 µM
